For 14 molecules, Ki results are on record in US7238688B2, “Piperidine compounds” (Schering Corporation, priority 2001, dated 2007).

SMILES strings stand for the structures. Where “and” joins values, the source holds several entries; their conditions need not be identical. Equal values may be shown once.

The target of the assay is T1, H3 receptors (Cavia porcellus, UniProt Q9JI35).
T1 construct: The source of the H3 receptors in this experiment was guinea pig brain; from tissue; host or cells: guinea pig brain membranes
As to the kind of experiment: H3-Receptor Binding Assay. Particulars: guinea pig brain membranes; 3 nM [3H]R-α-methyl histamine or 3 nM [3H]N-methyl histamine; 30° C. for 30 min. The method, then: General Procedure for H3-Receptor Binding Assay
The source of the H3 receptors in this experiment was guinea pig brain. The animals weighed 400–600 g. The brain tissue was homogenized with a solution of 50 mM Tris, pH 7.5. The final concentration of tissue in the homogenization buffer was 10% w/v. The homogenates were centrifuged at 1,000×g for 10 min. in order to remove clumps of tissue and debris. The resulting supernatants were then centrifuged at 50,000×g for 20 min. in order to sediment the membranes, which were next washed three times in homogenization buffer (50,000×g for 20 min. each). The membranes were frozen and stored at −70° C. until needed.
All compounds to be tested were dissolved in DMSO and then diluted into the binding buffer (50 mM Tris, pH 7.5) such that the final concentration was 2 μg/ml with 0.1% DMSO. Membranes were then added (400 μg of protein) to the reaction tubes. The reaction was started by the addition of 3 nM[^3H]R-α-methyl histamine (8.8 Ci/mmol) or 3 nM [^3H]N[…] -methyl histamine (80 Ci/mmol) and continued under incubation at 30° C. for 30 min. Bound ligand was separated from unbound ligand by filtration, and the amount of radioactive ligand bound to the membranes was quantitated by liquid scintillation spectrometry.

T1 sequence (Q9JI35 whole entry): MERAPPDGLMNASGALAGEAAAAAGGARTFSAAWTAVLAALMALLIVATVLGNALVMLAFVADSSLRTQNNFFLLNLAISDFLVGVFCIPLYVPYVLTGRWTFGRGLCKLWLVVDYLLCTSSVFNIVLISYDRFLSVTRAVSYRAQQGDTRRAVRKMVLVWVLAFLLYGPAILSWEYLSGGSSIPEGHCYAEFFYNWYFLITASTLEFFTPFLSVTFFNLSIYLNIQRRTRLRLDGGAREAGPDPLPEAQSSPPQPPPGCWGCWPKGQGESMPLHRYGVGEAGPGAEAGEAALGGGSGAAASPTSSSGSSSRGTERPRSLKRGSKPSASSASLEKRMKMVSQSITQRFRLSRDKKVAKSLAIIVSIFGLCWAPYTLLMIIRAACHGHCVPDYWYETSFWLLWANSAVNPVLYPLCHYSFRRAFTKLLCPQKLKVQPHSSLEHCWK

The molecule `O=C(C1CCN(Cc2ccncc2)CC1)N1CCN(Cc2ccccc2Br)CC1` [Compound 93] returned a Ki of 0.2 to 35 nM.
The value for `O=C(NCCc1ccccc1)c1cccc(CN2CCN(C(=O)C3CCN(Cc4ccncc4)CC3)CC2)c1` [Compound 276] was 0.2 to 35 nM; that for `Nc1cc(CN2CCC(C(=O)N3CCN(Cc4c(F)ccc(F)c4F)CC3)CC2)ccn1` [Compound 306] was 0.2 to 35 nM and 2 to 22 nM.
The value for `Nc1cc(CN2CCC(C(=O)N3CCN(Cc4cccc(Cl)c4S(=O)(=O)N4CCOCC4)CC3)CC2)ccn1` [Compound 317] was 0.2 to 35 nM.
To `Nc1cc(CN2CCC(C(=O)N3CCN(Cc4cc(F)ccc4Br)CC3)CC2)ccn1` [Compound 328] belongs 0.2 to 35 nM; to `Cc1noc(C)c1CN1CCN(C(=O)C2CCN(Cc3ccnc(N)c3)CC2)CC1` [Compound 331], 0.2 to 35 nM; to `CN(C)S(=O)(=O)c1cc(F)ccc1CN1CCN(C(=O)C2CCN(Cc3ccnc(N)c3)CC2)CC1` [Compound 332], 0.2 to 35 nM and 2 to 22 nM.
Regarding `Nc1cc(CN2CCC(C(=O)N3CCN(Cc4cc(-c5ccc(Cl)cc5)on4)CC3)CC2)ccn1` [Compound 333], the Ki is 0.2 to 35 nM and 2 to 22 nM.
For the molecule `Nc1cc(CN2CCC(C(=O)N3CCN(Cc4c(F)cccc4Cl)CC3)CC2)ccn1` [Compound 336], the Ki is 0.2 to 35 nM and 2 to 22 nM.
In turn, `CN(c1ccc(Cl)cc1)S(=O)(=O)c1cc(F)ccc1CN1CCN(C(=O)C2CCN(Cc3ccnc(N)c3)CC2)CC1` [Compound 343] displayed a Ki of 0.2 to 35 nM.
Consider `Nc1cc(CN2CCC(C(=O)N3CCN(S(=O)(=O)c4ccc(Cl)cc4)CC3)CC2)ccn1` [Compound 366], for which the Ki is 0.2 to 35 nM and 2 to 22 nM.
On to `CN(C)S(=O)(=O)N1CCN(C(=O)C2CCN(Cc3ccnc(N)c3)CC2)CC1` [Compound 367], for which the Ki fell in the range of 0.2 to 35 nM.
To `Nc1cc(CN2CCC(C(=O)N3CCN(S(=O)(=O)c4ccccc4Cl)CC3)CC2)ccn1` [Compound 374] belongs 0.2 to 35 nM and 2 to 22 nM; to `Nc1cc(CN2CCC(C(=O)N3CCN(S(=O)(=O)c4cc(Cl)cc(Cl)c4)CC3)CC2)ccn1` [Compound 376], 0.2 to 35 nM.
